For one assay, the target named is T1, PARP-1 (Homo sapiens, UniProt P09874).
T1 construct: Full length His6-PARP-1 and His6-SUMO-PARP-10 proteins we expressed and purified; His6 (N); made in house
Kind of assay: In vitro PARP-1 auto-PARylation activity assay. Format: biochemical. The following applies: dose response; activated DNA, 50 μM NAD^+, anti-ADPr immunoblot. The method, then: (§1) FIG. 5. A clickable NAD^+ PAL probe (2-ad-BAD) inhibits PARP-1 and PARP-10 activity in concentration response. (FIG. 5A) 50 nM of recombinant His6-PARP-1 was incubated with 10 μg/mL activated DNA in 100 mM NaCl, 50 mM HEPES [pH 7.4], 4 mM MgCl2, 0.2 mM TCEP for 10 min, then treated with indicated competitor (BAD or the PARP-1 inhibitor NMS-P118) for additional 10 min. 50 μM NAD^+ was then added to initiate auto-PARylation of PARP-1. After 10 min, the reaction was quenched by addition of 4× Laemmli sample buffer and boiling at 95° C. for 5 min. Protein samples were separated by SDS-PAGE, transferred onto nitrocellulose and probed with indicated antibodies. (FIG. 5B) Experiments were performed essentially as in (5A) with the exception that damaged DNA was omitted and the PARP-10 inhibitor ITK6 was used instead of NMS-P118. (FIG. 5C) Densitometry analyses of (5A) and (5B) comparing inhibitory effect of BAD on PARP-1 and PARP-10 auto-ADP-ribosylation. Data are mean±SEM of 3 independent experiments. […]
(§2) Samples were run on 10% or 12% acrylamide gels for ˜1 h at 180 V in Mini-PROTEAN Tetra cell (Biorad). […] Band intensities we quantified with ImageJ.

The target in a further assay is T2, PARP-10 (Homo sapiens, UniProt Q53GL7).
T2 construct: Full length His6-PARP-1 and His6-SUMO-PARP-10 proteins we expressed and purified; His6 (N); SUMO (N); made in house
T2 sequence (Q53GL7 1-1025): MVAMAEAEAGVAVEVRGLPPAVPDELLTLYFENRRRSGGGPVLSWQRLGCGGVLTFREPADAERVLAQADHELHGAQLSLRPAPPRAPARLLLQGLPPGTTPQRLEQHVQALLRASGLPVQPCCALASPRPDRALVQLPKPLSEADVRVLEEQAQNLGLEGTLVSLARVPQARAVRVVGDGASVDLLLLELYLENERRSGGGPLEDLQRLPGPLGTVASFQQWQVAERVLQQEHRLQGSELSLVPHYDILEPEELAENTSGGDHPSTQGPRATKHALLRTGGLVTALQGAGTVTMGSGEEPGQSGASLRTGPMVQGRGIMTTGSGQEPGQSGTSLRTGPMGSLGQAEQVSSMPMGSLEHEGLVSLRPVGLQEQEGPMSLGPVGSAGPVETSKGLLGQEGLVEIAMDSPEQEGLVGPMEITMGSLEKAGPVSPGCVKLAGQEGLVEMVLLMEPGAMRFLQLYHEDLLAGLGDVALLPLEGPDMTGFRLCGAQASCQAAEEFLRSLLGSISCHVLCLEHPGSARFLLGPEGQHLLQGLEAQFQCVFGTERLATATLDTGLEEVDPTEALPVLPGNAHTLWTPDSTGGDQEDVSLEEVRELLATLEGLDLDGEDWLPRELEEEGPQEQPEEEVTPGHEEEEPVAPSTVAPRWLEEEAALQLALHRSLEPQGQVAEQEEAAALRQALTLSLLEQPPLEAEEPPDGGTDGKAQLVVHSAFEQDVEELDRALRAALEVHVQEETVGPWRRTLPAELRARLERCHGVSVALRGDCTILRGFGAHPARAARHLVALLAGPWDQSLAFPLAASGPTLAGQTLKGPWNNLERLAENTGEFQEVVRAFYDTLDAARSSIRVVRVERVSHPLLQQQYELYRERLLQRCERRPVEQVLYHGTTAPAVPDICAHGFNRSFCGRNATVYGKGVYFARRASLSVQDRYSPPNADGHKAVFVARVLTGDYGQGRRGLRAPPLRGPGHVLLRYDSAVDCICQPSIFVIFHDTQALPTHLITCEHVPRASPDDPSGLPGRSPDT
The assay can be described thus: In vitro PARP-10 auto-MARylation activity assay. The class given is biochemical. The method, then:
as §1, §2

T1 sequence (P09874 whole entry): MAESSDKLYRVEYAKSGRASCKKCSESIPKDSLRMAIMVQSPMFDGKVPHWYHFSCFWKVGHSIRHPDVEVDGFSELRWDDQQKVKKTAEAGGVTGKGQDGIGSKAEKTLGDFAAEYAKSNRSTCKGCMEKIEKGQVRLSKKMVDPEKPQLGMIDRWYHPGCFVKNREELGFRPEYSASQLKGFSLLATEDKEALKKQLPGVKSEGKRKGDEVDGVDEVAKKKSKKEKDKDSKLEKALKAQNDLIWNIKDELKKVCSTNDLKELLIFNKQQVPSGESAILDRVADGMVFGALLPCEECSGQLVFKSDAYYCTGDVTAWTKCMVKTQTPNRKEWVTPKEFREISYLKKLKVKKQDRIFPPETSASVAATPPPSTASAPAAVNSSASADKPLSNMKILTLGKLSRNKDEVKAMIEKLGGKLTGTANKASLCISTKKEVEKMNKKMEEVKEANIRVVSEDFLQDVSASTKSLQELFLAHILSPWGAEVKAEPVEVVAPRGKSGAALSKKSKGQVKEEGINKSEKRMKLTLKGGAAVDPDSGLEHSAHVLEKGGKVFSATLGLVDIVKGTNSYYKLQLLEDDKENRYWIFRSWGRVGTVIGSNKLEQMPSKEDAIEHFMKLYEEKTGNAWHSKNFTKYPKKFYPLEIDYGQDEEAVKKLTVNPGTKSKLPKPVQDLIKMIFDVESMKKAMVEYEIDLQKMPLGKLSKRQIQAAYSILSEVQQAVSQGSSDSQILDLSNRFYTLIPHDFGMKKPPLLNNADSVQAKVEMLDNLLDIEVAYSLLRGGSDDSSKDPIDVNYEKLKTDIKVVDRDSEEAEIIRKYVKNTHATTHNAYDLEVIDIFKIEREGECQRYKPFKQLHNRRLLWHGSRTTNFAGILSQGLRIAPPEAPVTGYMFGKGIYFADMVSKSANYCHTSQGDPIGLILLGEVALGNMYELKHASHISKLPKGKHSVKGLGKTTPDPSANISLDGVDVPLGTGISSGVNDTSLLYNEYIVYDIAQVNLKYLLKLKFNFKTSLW

Turning to `NC(=O)c1cccc([C@@H]2O[C@H](COP(=O)(O)OP(=O)(O)OC[C@H]3O[C@@H](n4cnc5c(N)ncnc54)[C@H](O)[C@@H]3O)[C@@H](O)[C@H]2O)c1` [BAD, benzamide adenine dinucleotide], on PARP-1, the “inhibition of PARP-1 auto-PARylation” value is “inhibited”. At PARP-10 (auto-ADP-ribosylation assays, densitometry), the “relative potency against PARP-10 compared to PARP-1” value is given as “the opposite was true”. Also, the “inhibition of PARP-10 auto-MARylation” value at PARP-10 (dose response, 50 μM NAD^+, anti-ADPr immunoblot) is given as “inhibited”.
